Source: the supplement of paper PMC10307832

Tests used:
Assay in all cases: relative viability (nuclei count vs DMSO), 5 days (fraction); higher = more cells survive
Kobe2602 + Crizotinib = compound: C1=CC(=CC=C1NC(=S)NNC2=C(C=C(C=C2[N+](=O)[O-])C(F)(F)F)[N+](=O)[O-])F [Kobe2602] + C[C@@H](Oc1cc(-c2cnn(C3CCNCC3)c2)cnc1N)c1c(Cl)ccc(F)c1Cl [Crizotinib] (partner 1 µM)
In short: (§1)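 Relative viability equals treated-well nuclei counts divided by vehicle-well nuclei counts. Counts came from 4× images of lung cancer cell lines grown in 1536-well plates for 5 days after pin-tool dosing on the day after seeding. Dosing used one drug alone or a fixed anchor-drug dose plus five library-drug doses (not always all listed) in √10 steps, and values are medians of duplicate plates.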

Kobe2602 + Linsitinib = compound: C1=CC(=CC=C1NC(=S)NNC2=C(C=C(C=C2[N+](=O)[O-])C(F)(F)F)[N+](=O)[O-])F [Kobe2602] + C[C@]1(O)C[C@@H](c2nc(-c3ccc4ccc(-c5ccccc5)nc4c3)c3c(N)nccn32)C1 [Linsitinib] (partner 1 µM)
In short: as §1

Kobe2602 + Decitabine = compound: C1=CC(=CC=C1NC(=S)NNC2=C(C=C(C=C2[N+](=O)[O-])C(F)(F)F)[N+](=O)[O-])F [Kobe2602] + Nc1ncn([C@H]2C[C@H](O)[C@@H](CO)O2)c(=O)n1 [Decitabine] (partner 2 µM)
In short: as §1

Zosuquidar + Bortezomib = compound: O[C@@H](COc1cccc2ncccc12)CN1CCN([C@@H]2c3ccccc3[C@@H]3[C@H](c4ccccc42)C3(F)F)CC1 [Zosuquidar] + CC(C)C[C@H](NC(=O)[C@H](Cc1ccccc1)NC(=O)c1cnccn1)B(O)O [Bortezomib] (partner 0.002 µM)
In short: as §1

Cell Line	relative viability (Kobe2602 + Crizotinib; first compound 0.2 µM)	relative viability (Kobe2602 + Crizotinib; first compound 0.6325 µM)	relative viability (Kobe2602 + Crizotinib; first compound 2 µM)	relative viability (Kobe2602 + Crizotinib; first compound 6.325 µM)	relative viability (Kobe2602 + Crizotinib; first compound 20 µM)	relative viability (Kobe2602 + Linsitinib; first compound 0.2 µM)	relative viability (Kobe2602 + Linsitinib; first compound 0.6325 µM)	relative viability (Kobe2602 + Linsitinib; first compound 2 µM)	relative viability (Kobe2602 + Linsitinib; first compound 6.325 µM)	relative viability (Kobe2602 + Linsitinib; first compound 20 µM)	relative viability (Kobe2602 + Decitabine; first compound 0.2 µM)	relative viability (Kobe2602 + Decitabine; first compound 0.6325 µM)	relative viability (Kobe2602 + Decitabine; first compound 2 µM)	relative viability (Kobe2602 + Decitabine; first compound 6.325 µM)	relative viability (Kobe2602 + Decitabine; first compound 20 µM)	relative viability (Zosuquidar + Bortezomib; first compound 0.01 µM)	relative viability (Zosuquidar + Bortezomib; first compound 0.03162 µM)	relative viability (Zosuquidar + Bortezomib; first compound 0.1 µM)	relative viability (Zosuquidar + Bortezomib; first compound 0.3162 µM)	relative viability (Zosuquidar + Bortezomib; first compound 1 µM)
NCI-H1975	1.01	0.959	0.838	0.897	0.779	0.969	0.917	0.978	0.859	0.818	0.402	0.427	0.419	0.379	0.4	0.362	0.34	0.425	0.437	0.341
NCI-H1993	0.82	0.89	0.72	0.753	0.782	0.725	0.826	0.753	0.698	0.783	0.598	0.583	0.537	0.535	0.593	1.02	0.99	1.08	1.17	1.11
NCI-H2009	1.02	1.03	1.01	1.05	1.03	1.13	1.2	1.1	1.19	1.15	0.358	0.414	0.405	0.394	0.372	0.98	0.917	0.737	1.16	0.966
NCI-H2023	0.674	0.627	0.526	0.611	0.473	0.575	0.728	0.528	0.586	0.682	0.232	0.218	0.207	0.199	0.196	0.93	0.939	0.878	1.4	1.06
NCI-H2085	0.843	0.823	0.904	0.855	0.723	0.926	0.829	0.864	0.977	0.97	0.549	0.549	0.568	0.552	0.616	1.11	0.987	0.852	1.1	1.06
NCI-H2087	0.671	0.766	0.922	0.786	0.802	1.11	0.864	0.882	0.939	0.94	0.313	0.271	0.27	0.281	0.309	0.849	0.701	0.94	0.923	0.85
NCI-H2126	1.01	1.06	0.962	1.01	0.912	0.718	0.659	0.7	0.704	0.765	0.675	0.576	0.551	0.619	0.577	1.12	1.04	1.01	1.19	1.09
NCI-H2347	0.613	0.643	0.612	0.712	0.785	0.924	0.884	0.947	0.997	1.03	0.648	0.618	0.594	0.569	0.661	1.2	0.979	1.04	1.22	0.6
